Where two headings read alike, the source gives them in different places.
How the values were obtained:
[1] = system: MDA-MB-453 cells; experiment: Cell proliferation, MDA-MB-453 (CellTiter Glo); format: cell-based; conditions: Homo sapiens, read-out: Cell Proliferation GI50 (nM) MDA
Protocol: For both MDA-MB-453 and Huh7 cells the starting density was 5000 cells per well. The cells were allowed to settle down for 4 hr and were then treated with 5, 1.25, 0.31, 0.078, 0.020 or 0.005 μM of test compound for: 96 hr for MDA-MB-453 and 120 hr for Huh7 cells. Cell viability was determined by CellTiter Glo (Promega, Madison, Wis.) and the results were converted to cell numbers using a standard curve. The growth inhibition (GI50) values were determined by Graph Pad Prism.
The results of these experiments show the ability of compounds to inhibit cell growth in FGFR dependant cell lines and are depicted in Table 8, in the columns titled “Cell Proliferation GI50 (nM)”. MDA-MB-453 cell results fall under the heading “MDA” and Huh7 cell results fall under the heading “Huh.”

[2] = system: Huh7 cells; experiment: Cell proliferation, Huh7 (CellTiter Glo); format: cell-based; conditions: Homo sapiens, read-out: Cell Proliferation GI50 (nM) HUH
Protocol: The growth inhibition (GI50) values were determined by Graph Pad Prism.

[3] = molecular target: FGFR4-WT (Homo sapiens (Human), UniProt P22455); experiment: Omnia assay for potency assessment against FGFR4 enzyme; format: biochemical; conditions: Y10-Sox 10 uM, read-out: FGFR4 IC50
Protocol: A 10× stock solution of FGFR4-WT (PR4380C), (from Invitrogen, Carlsbad, Calif.) corresponding to method a in Table 7, was prepared as described below. Alternatively, a 10× stock solution of FGFR4-WT (F01-11G), (SignalChem, Richmond, BC) corresponding to method b in Table 7, was prepared as described below. A solution of 1.4×ATP (AS001A) and 5×Tyr-Sox conjugated peptide substrate (KNZ3101) were prepared in IX kinase reaction buffer consisting of 20 mM Tris, pH 7.5, 5 mM MgCl2, 1 mM EGTA, 5 mM β-glycerophosphate, 5% glycerol (10× stock, KB002A) and 0.2 mM DTT (DS001A). […] The serially diluted compounds were prepared on a Tecan EVO100. A second addition of 10 μl of Tyr-Sox FGFR4 substrate was added to each well and the kinase reactions were started with the addition of 35 μL of 1.4×ATP. The reactions were monitored every 71 seconds for 240 minutes at λex360/λem485 in a Synergy plate reader from BioTek (Winooski, Vt.).

[4] = method a: Invitrogen FGFR4-WT 10 nM, ATP 300 uM

Chain of FGFR4-WT (P22455 22-802): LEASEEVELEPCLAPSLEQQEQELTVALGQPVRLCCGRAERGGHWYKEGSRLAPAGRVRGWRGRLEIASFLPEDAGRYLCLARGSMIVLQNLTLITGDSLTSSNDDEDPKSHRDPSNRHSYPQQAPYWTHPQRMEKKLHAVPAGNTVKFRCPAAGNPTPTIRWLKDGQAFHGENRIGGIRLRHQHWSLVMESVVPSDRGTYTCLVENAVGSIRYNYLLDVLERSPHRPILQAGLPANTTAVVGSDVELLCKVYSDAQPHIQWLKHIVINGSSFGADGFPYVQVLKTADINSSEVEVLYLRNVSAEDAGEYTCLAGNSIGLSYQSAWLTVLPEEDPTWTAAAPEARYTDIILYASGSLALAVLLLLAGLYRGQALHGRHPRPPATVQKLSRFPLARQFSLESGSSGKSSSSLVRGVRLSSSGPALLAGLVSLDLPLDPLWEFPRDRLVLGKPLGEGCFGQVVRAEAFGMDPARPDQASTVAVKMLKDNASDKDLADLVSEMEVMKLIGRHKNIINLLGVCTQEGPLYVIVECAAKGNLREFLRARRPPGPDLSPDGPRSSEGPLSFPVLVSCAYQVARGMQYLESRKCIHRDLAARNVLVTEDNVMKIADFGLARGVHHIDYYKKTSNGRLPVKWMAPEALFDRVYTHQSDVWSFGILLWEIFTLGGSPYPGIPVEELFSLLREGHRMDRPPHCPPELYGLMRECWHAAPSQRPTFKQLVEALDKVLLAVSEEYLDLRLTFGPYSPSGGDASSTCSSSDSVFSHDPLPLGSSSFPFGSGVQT

SMILES | GI50 ([1]; MDA-MB-453, 96 hr) | GI50 ([2]; Huh-7, Huh7, 120 hr) | further results
C=CC(=O)NC1CCCCC1Nc1ncc2c(n1)N(Cc1cccc(NC(=O)CC)c1)C(=O)N(c1c(Cl)c(OC)cc(OC)c1Cl)C2 (racemic) [I-8] | < 100 nM | 101 to 500 nM | –
C=CC(=O)NC1CCCCC1Nc1ncc2c(n1)N(C)C(=O)N(c1cc(OC)cc(OC)c1)C2 (racemic) [I-18] | – | – | IC50 ([3]; method b: SignalChem FGFR4-WT 2.5 nM, ATP 250 uM): > 1000 nM
C=CC(=O)NC1CCCCC1Nc1ncc2c(n1)N(C)C(=O)N(c1c(Cl)c(OC)cc(OC)c1Cl)C2 (racemic) [I-19] | 101 to 500 nM | 501 to 999 nM | –
C=CC(=O)N(C)C1CCCCC1Nc1ncc2c(n1)N(C)C(=O)N(c1cc(OC)cc(OC)c1)C2 (racemic) [I-39] | – | – | IC50 [3, 4]: > 1000 nM
C=CC(=O)NC1CCCCC1Nc1ncc2c(n1)N(C1CCCN(C(=O)OC(C)(C)C)C1)C(=O)N(c1cc(OC)cc(OC)c1)C2 (racemic) [I-45] | – | – | IC50 [3, 4]: > 1000 nM
C=CC(=O)NC1CCCCC1Nc1ncc2c(n1)N(C1CCCNC1)C(=O)N(c1cc(OC)cc(OC)c1)C2 (racemic) [I-46] | – | – | IC50 [3, 4]: > 1000 nM
C=CC(=O)NC1CCCCC1Nc1ncc2c(n1)N(C1CCC1)C(=O)N(c1c(Cl)c(OC)cc(OC)c1Cl)C2 (racemic) [I-70] | – | – | IC50 [3, 4]: < 100 nM
C=CC(=O)NC1CCCCC1Nc1ncc2c(n1)N(Cc1cccc(NS(C)(=O)=O)c1)C(=O)N(c1c(Cl)c(OC)cc(OC)c1Cl)C2 (racemic) [I-89] | – | – | IC50 [3, 4]: < 100 nM
C=CC(=O)NC1CCCC1Nc1ncc2c(n1)N(C)C(=O)N(c1c(Cl)c(OC)cc(OC)c1Cl)C2 (racemic) [I-112] | – | – | IC50 [3, 4]: < 100 nM
C=CC(=O)NC1CCCCC1Nc1ncc2c(n1)N(CC1CC1)C(=O)N(c1c(Cl)c(OC)cc(OC)c1Cl)C2 (racemic) [I-129] | – | – | IC50 [3, 4]: < 100 nM
C=CC(=O)Nc1cc(C(F)(F)F)ccc1Nc1ncc2c(n1)N(Cc1ccccc1)C(=O)N(c1c(Cl)c(OC)cc(OC)c1Cl)C2 [I-6] | < 100 nM | 101 to 500 nM | –
C=CC(=O)Nc1ccccc1Nc1ncc2c(n1)N(Cc1cccc(OC)c1)C(=O)N(c1c(Cl)c(OC)cc(OC)c1Cl)C2 [I-28] | – | – | IC50 [3, 4]: < 100 nM
C=CC(=O)Nc1ccccc1Nc1ncc2c(n1)N(CC#N)C(=O)N(c1cc(OC)cc(OC)c1)C2 [I-48] | 501 to 999 nM | > 1000 nM | –
C=CC(=O)Nc1ccccc1Nc1ncc2c(n1)N(Cc1cscn1)C(=O)N(c1cc(OC)cc(OC)c1)C2 [I-64] | 101 to 500 nM | > 1000 nM | –
C=CC(=O)Nc1ccc(-c2nccs2)cc1Nc1ncc2c(n1)N(C)C(=O)N(c1cc(OC)cc(OC)c1)C2 [I-78] | 101 to 500 nM | – | –
C=CC(=O)N[C@H]1CCCC[C@H]1Nc1ncc2c(n1)N(Cc1ccccc1)C(=O)N(c1c(Cl)c(OC)cc(OC)c1Cl)C2 [I-82] | < 100 nM | – | –
C=CC(=O)Nc1ccccc1Nc1ncc2c(n1)N(C)C(=O)N(c1c(Cl)cccc1Cl)C2 [I-83] | 501 to 999 nM | > 1000 nM | –
C=CC(=O)Nc1ccccc1Nc1ncc2c(n1)N(C1CCNCC1)C(=O)N(c1c(Cl)c(OC)cc(OC)c1Cl)C2 [I-85] | – | – | GI50 ([1]; MDA-MB-453, 96 h): < 100 nM; GI50 ([2]; Huh-7, 120 h): 101 to 500 nM
C=CC(=O)Nc1ccccc1Nc1ncc2c(n1)N(Cc1cscn1)C(=O)N(c1c(Cl)c(OC)cc(OC)c1Cl)C2 [I-86] | < 100 nM | – | –
C=CC(=O)Nc1ccccc1Nc1ncc2c(n1)N(Cc1ccnc(N)c1)C(=O)N(c1cc(OC)cc(OC)c1)C2 [I-87] | < 100 nM | 101 to 500 nM | –
C=CC(=O)Nc1ccccc1Nc1ncc2c(n1)N(C1COC1)C(=O)N(c1cc(OC)cc(OC)c1)C2 [I-88] | 501 to 999 nM | > 1000 nM | –

SMILES | GI50 ([1]; MDA-MB-453, 96 hr) | GI50 ([2]; Huh-7, Huh7, 120 hr) | further results
C=CC(=O)Nc1ccccc1Nc1ncc2c(n1)N(Cc1cccc(C#N)c1)C(=O)N(c1cc(OC)cc(OC)c1)C2 [I-90] | 101 to 500 nM | – | –
C=CC(=O)Nc1ccccc1Nc1ncc2c(n1)N(Cc1nccs1)C(=O)N(c1c(Cl)c(OC)cc(OC)c1Cl)C2 [I-91] | < 100 nM | – | –
C=CC(=O)N[C@H]1CCCC[C@H]1Nc1ncc2c(n1)N(Cc1nccs1)C(=O)N(c1c(Cl)c(OC)cc(OC)c1Cl)C2 [I-92] | 101 to 500 nM | – | –
C=CC(=O)N[C@H]1CCCC[C@H]1Nc1ncc2c(n1)N(C)C(=O)N(c1c(Cl)c(OC)cc(OC)c1Cl)C2 [I-95] | 101 to 500 nM | 501 to 999 nM | –
C=CC(=O)Nc1ccccc1Nc1ncc2c(n1)N(Cc1cccc(C(N)=O)c1)C(=O)N(c1cc(OC)cc(OC)c1)C2 [I-97] | 101 to 500 nM | > 1000 nM | –
C=CC(=O)Nc1ccccc1Nc1ncc2c(n1)N(CC1CC1)C(=O)N(c1cc(OC)cc(OC)c1)C2 [I-98] | 101 to 500 nM | > 1000 nM | –
C=CC(=O)Nc1ccccc1Nc1ncc2c(n1)N(CC(F)F)C(=O)N(c1cc(OC)cc(OC)c1)C2 [I-99] | 101 to 500 nM | > 1000 nM | –
C=CC(=O)Nc1ccccc1Nc1ncc2c(n1)N(CC1CC1)C(=O)N(c1cc(OC)cc(OC)c1Cl)C2 [I-100] | 101 to 500 nM | 501 to 999 nM | –
C=CC(=O)Nc1ccccc1Nc1ncc2c(n1)N(CC(F)F)C(=O)N(c1c(Cl)c(OC)cc(OC)c1Cl)C2 [I-103] | < 100 nM | 101 to 500 nM | –
C=CC(=O)Nc1ccccc1Nc1ncc2c(n1)N(CC(F)F)C(=O)N(c1cc(OC)cc(OC)c1Cl)C2 [I-104] | < 100 nM | 101 to 500 nM | –
C=CC(=O)Nc1ccccc1Nc1ncc2c(n1)N(C)C(=O)N(c1cc(OC)cc(OC)c1F)C2 [I-108] | 101 to 500 nM | – | –
C=CC(=O)Nc1ccccc1Nc1ncc2c(n1)N(CC1CC1)C(=O)N(c1cc(OC)cc(OC)c1F)C2 [I-109] | < 100 nM | – | –
C=CC(=O)Nc1ccccc1Nc1ncc2c(n1)N(CCF)C(=O)N(c1cc(OC)cc(OC)c1Cl)C2 [I-110] | 101 to 500 nM | 501 to 999 nM | –
C=CC(=O)Nc1ccccc1Nc1ncc2c(n1)N(CC(F)F)C(=O)N(c1c(F)c(OC)cc(OC)c1F)C2 [I-116] | < 100 nM | 101 to 500 nM | –
C=CC(=O)Nc1ccccc1Nc1ncc2c(n1)N(Cc1cn[nH]c1)C(=O)N(c1cc(OC)cc(OC)c1)C2 [I-121] | 101 to 500 nM | 501 to 999 nM | –
C=CC(=O)Nc1ccccc1Nc1ncc2c(n1)N(Cc1cn[nH]c1)C(=O)N(c1c(Cl)c(OC)cc(OC)c1Cl)C2 [I-124] | < 100 nM | 101 to 500 nM | –
C=CC(=O)Nc1ccccc1Nc1ncc2c(n1)N(C)C(=O)N(c1c(F)c(OC)cc(OC)c1F)C2 [I-131] | < 100 nM | 101 to 500 nM | –
C=CC(=O)NC1CCCCC1Nc1ncc2c(n1)N(Cc1ccnc(N)c1)C(=O)N(c1c(Cl)c(OC)cc(OC)c1Cl)C2 (stereo not drawn) [I-133] | < 100 nM | 101 to 500 nM | –
C=CC(=O)Nc1ccccc1Nc1ncc2c(n1)N(Cc1ccnc(N)c1)C(=O)N(c1c(Cl)c(OC)cc(OC)c1Cl)C2 [I-135] | < 100 nM | – | –
C=CC(=O)Nc1ccccc1Nc1ncc2c(n1)N(Cc1ccn(C)n1)C(=O)N(c1c(Cl)c(OC)cc(OC)c1Cl)C2 [I-136] | < 100 nM | – | –
